Measured values: ChEMBL document CHEMBL1201862, “PubChem BioAssay data set” (2004)
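Assay format: 96-well plates, 48-hour exposure. GI50 marks 50% less growth.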 Calls of active or inactive are those of the source. Cut-off read from the data, not from the text of the source: active = GI50 up to about 1.1 µM and inactive = higher. *1 amine or outer side, *2 acyl side, *3 side chain or, on linkers, in order; H or OH if unused. Where a SMILES comes first, the peptide text is derived from it. Bridges are numbered along the chain shown (N, C = ends). Roman numbers before positions name the chains, in order. [ ]: non-standard residue; d: D form. Actinocin(9to1) = Cc1c2oc3c(C)ccc(C(=O)[*:1])c3nc-2c(C(=O)[*:2])c(N)c1=O; NMeV = CN[CH](C(=O)O)C(C)C; Sar = CNCC(=O)O

Legend:
Test in all cases: DTP human tumour cell line panel, 48 h
786-0 = test system: 786-0
ACHN = test system: ACHN
DLD-1 = test system: DLD-1
HCC 2998 = test system: HCC 2998
HCT-116 = test system: HCT-116
M14 = test system: M14
M19-MEL = test system: M19-MEL
RPMI-8226 = test system: RPMI-8226
SF-268 = test system: SF-268
SF-539 = test system: SF-539
SK-MEL-28 = test system: SK-MEL-28
SK-OV-3 = test system: SK-OV-3
SN12C = test system: SN12C
TK-10 = test system: TK-10
HOP-92 = test system: HOP-92
OVCAR-5 = test system: OVCAR-5
A498 = test system: A498
SK-MEL-5 = test system: SK-MEL-5
BT-549 = test system: BT-549
T47D = test system: T47D

Measured: GI50

c1ccc2c(c1)CCc1cc3cc4c(nc3nc1-2)-c1ccccc1CC4
inactive: 786-0 83 µM | ACHN > 100 µM | DLD-1 > 100 µM | HCC 2998 > 100 µM | HCT-116 > 100 µM | M14 > 100 µM | M19-MEL > 100 µM | RPMI-8226 > 100 µM | SF-268 83 µM | SF-539 > 100 µM | SK-MEL-28 > 100 µM | SK-OV-3 > 100 µM | SN12C > 100 µM | TK-10 > 100 µM

CCCCN(CCCC)C(=O)C(=O)C(C)C(=O)CC (stereo not given)
inactive: 786-0 > 100 µM | ACHN > 100 µM | DLD-1 > 100 µM | HCC 2998 > 100 µM | HOP-92 > 100 µM | M14 > 100 µM | OVCAR-5 > 100 µM | RPMI-8226 > 100 µM | SF-268 > 100 µM | SF-539 > 100 µM | SK-MEL-28 > 100 µM | SK-OV-3 > 100 µM | SN12C > 100 µM | TK-10 > 100 µM

COC(=O)[C@@]12OC[C@]34C([C@@H](O)C1O)[C@@]1(C)CC(=O)C(OC(=O)CC(C)C(F)(F)F)=C(C)C1C[C@H]3OC(=O)[C@H](O)[C@H]42 (stereo not given in full)
inactive: 786-0 1.92 µM | ACHN 8.22 µM | HCC 2998 2 µM | HCT-116 2.47 µM | M14 1.99 µM | OVCAR-5 19.6 µM | SF-268 6.85 µM | SF-539 1.51 µM | SK-MEL-28 1.53 µM | SK-MEL-5 1.63 µM | SK-OV-3 5.24 µM | SN12C 2 µM | TK-10 5.51 µM
active: A498 0.156 µM | HOP-92 0.887 µM | M19-MEL 0.434 µM | RPMI-8226 0.594 µM

CNC(=O)OCC1=C(COC(=O)NC)CN(c2ccccc2)C1
inactive: 786-0 > 100 µM | A498 > 100 µM | ACHN > 100 µM | BT-549 > 100 µM | HCC 2998 > 100 µM | HCT-116 > 100 µM | HOP-92 > 100 µM | M14 > 100 µM | OVCAR-5 > 100 µM | RPMI-8226 > 100 µM | SF-268 > 100 µM | SF-539 > 100 µM | SK-MEL-28 > 100 µM | SK-MEL-5 > 100 µM | SK-OV-3 > 100 µM | SN12C > 100 µM | T47D > 100 µM | TK-10 > 100 µM

Cc1c2oc3c(C)ccc(C(=O)NC4C(=O)NC(C(C)C)C(=O)N5CCCC5C(=O)N(C)CC(=O)N(C)C(C(C)C)C(=O)OC4C)c3nc-2c(C(=O)NC2C(=O)NC(C(C)C)C(=O)N3CCCC3C(=O)N(C)CC(=O)N(C)C(C(C)C)C(=O)OC2C)c(N)c1=O (stereo not given) (I: TVP[Sar][NMeV] / II: TVP[Sar][NMeV]; ester I:1-I:C, II:1-II:C; linker I:N-II:N via Actinocin(9to1); configuration not given here)
active: 786-0 0.000143 µM | A498 0.00169 µM | ACHN 0.000213 µM | BT-549 0.0025 µM | HCC 2998 0.00684 µM | HCT-116 < 0.0001 µM | HOP-92 0.00177 µM | M14 0.00256 µM | OVCAR-5 0.00181 µM | RPMI-8226 0.00104 µM | SF-268 < 0.0001 µM | SF-539 < 0.0001 µM | SK-MEL-28 0.000764 µM | SK-MEL-5 0.000351 µM | SK-OV-3 0.0017 µM | SN12C 0.00011 µM | T47D 0.000507 µM | TK-10 0.0101 µM

OCC(O)COCn1cc(Cn2ncc3c(NCc4ccccc4)ncnc32)nn1 (stereo not given)
inactive: 786-0 > 100 µM | A498 > 100 µM | ACHN > 100 µM | BT-549 > 100 µM | HCC 2998 > 100 µM | HCT-116 > 100 µM | HOP-92 > 100 µM | M14 > 100 µM | OVCAR-5 > 100 µM | RPMI-8226 > 100 µM | SF-268 17.7 µM | SF-539 > 100 µM | SK-MEL-28 > 100 µM | SK-MEL-5 > 100 µM | SK-OV-3 > 100 µM | SN12C > 100 µM | T47D > 100 µM | TK-10 > 100 µM

C/C=C1/CN2CCC34c5ccccc5N(C)C23C2CC1C4(C(=O)OC)C(OC(C)=O)O2 (stereo not given)
inactive: 786-0 > 100 µM | A498 > 100 µM | ACHN > 100 µM | BT-549 > 100 µM | HCC 2998 > 100 µM | HCT-116 > 100 µM | HOP-92 > 100 µM | M14 > 100 µM | OVCAR-5 > 100 µM | RPMI-8226 > 100 µM | SF-268 > 100 µM | SF-539 > 100 µM | SK-MEL-28 > 100 µM | SK-MEL-5 > 100 µM | SK-OV-3 > 100 µM | SN12C > 100 µM | T47D > 100 µM | TK-10 > 100 µM

O=C(Nc1cc(Cl)ccc1Cl)c1cc2cccc(Cl)c2oc1=O
inactive: 786-0 > 100 µM | ACHN > 100 µM | DLD-1 > 100 µM | HCT-116 > 100 µM | M14 > 100 µM | M19-MEL > 100 µM | RPMI-8226 > 100 µM | SF-539 > 100 µM | SK-MEL-28 > 100 µM | SK-MEL-5 > 100 µM | SK-OV-3 > 100 µM | SN12C > 100 µM | TK-10 > 100 µM
